Reference: ChEMBL document CHEMBL1681747, “Novel second generation analogs of eribulin. Part II: Orally available and active against resistant tumors in vivo” (Bioorg Med Chem Lett, 2011)
The source made the active and inactive calls. No cut-off for these calls is given here.

What was measured:
[1] = Oral bioavailability in BALB/c mouse at 10 mg/kg; assay type: ADME, organism-based; settings: in vivo
[2] = Half life in BALB/c mouse at 10 mg/kg; assay type: ADME, organism-based; design: dose 10 mg/kg; settings: in vivo
[3] = Tmax in BALB/c mouse at 10 mg/kg; assay type: ADME, organism-based; design: dose 10 mg/kg; settings: in vivo
[4] = AUC (0 to infinity) in BALB/c mouse at 10 mg/kg; assay type: ADME, organism-based; design: time infinity, dose 10 mg/kg; settings: plasma
[5] = Volume of distribution at steady state in BALB/c mouse at 10 mg/kg, iv; assay type: ADME, organism-based; design: dose 10 mg/kg, route intravenous; settings: in vivo, read-out: Vdss
[6] = Clearance in BALB/c mouse at 10 mg/kg, iv; assay type: ADME, organism-based; design: dose 10 mg/kg, route intravenous; settings: in vivo
DLD-1 [7] = assay: Cytotoxicity against human DLD1 cells; assay type: functional, cell-based
[8] = Volume of distribution at steady state in BALB/c mouse at 5 mg/kg, iv; assay type: ADME, organism-based; design: dose 5 mg/kg, route intravenous; settings: in vivo, read-out: Vdss
HCT-15 = assay: Cytotoxicity against human HCT15 cells; assay type: functional, cell-based
[9] = Clearance in BALB/c mouse at 5 mg/kg, iv; assay type: ADME, organism-based; design: dose 5 mg/kg, route intravenous; settings: in vivo
[10] = Half life in BALB/c mouse at 5 mg/kg; assay type: ADME, organism-based; design: dose 5 mg/kg; settings: in vivo
[11] = AUC (0 to infinity) in BALB/c mouse at 5 mg/kg; assay type: ADME, organism-based; design: time infinity, dose 5 mg/kg; settings: plasma
[12] = Tmax in BALB/c mouse at 5 mg/kg; assay type: ADME, organism-based; design: dose 5 mg/kg; settings: in vivo
[13] = Oral bioavailability in BALB/c mouse at 5 mg/kg; assay type: ADME, organism-based; settings: in vivo
DLD-1 [14] = assay: Antitumor activity against human DLD1 cells xenografted in iv dosed athymic mouse assessed as tumor growth inhibition administered qd for weekly 3 days; assay type: functional, organism-based
DLD-1 [15] = assay: Antitumor activity against human DLD1 cells xenografted in athymic mouse assessed as tumor stasis at 1.3 to 3 mg/kg, iv administered 2 weeks after tumor implantation qd for weekly 3 days; assay type: functional, organism-based
LOX = assay: Antitumor activity against human LOX cells xenografted in athymic mouse assessed as long term tumor regression at 0.95 to 3 mg/kg, po administered 6 days after tumor implantation qd for 2 weeks; assay type: functional, organism-based

bioavailability [1]	half-life [2]	Tmax [3]	AUC(0-inf) [4]	Vd [5]	clearance [6]	Vd [8]	clearance [9]	half-life [10]	AUC(0-inf) [11]	Tmax [12]	bioavailability [13]	Structure (SMILES)	IC50 (DLD-1 [7])	IC50 (HCT-15)	Activity (DLD-1 [14])	Activity (DLD-1 [15])	Activity (LOX)
3.2%	924 min	5 min	161 ng·h/mL	4.95 L/kg	19.8 mL/min/kg							C=C1C[C@@H]2CC[C@@]34C[C@H]5O[C@H]6[C@@H](O3)[C@H]3O[C@H](CC[C@@H]3O[C@H]6[C@H]5O4)CC(=O)C[C@@H]3[C@@H](OC)[C@@H](C[C@H](O)CN)O[C@H]3C[C@H]3O[C@@H](CC[C@@H]1O2)C[C@@H](C)C3=C [ERIBULIN]					
						3.64 L/kg	47 mL/min/kg	102 min	236 ng·h/mL	5 min	13.3%	C=C1C[C@@H]2CC[C@@]34C[C@H]5O[C@H]6[C@@H](O3)[C@H]3O[C@H](CC[C@@H]3O[C@H]6[C@H]5O4)CC(=O)C[C@@H]3[C@@H](OC)[C@@H](CC(=O)CN4CCOCC4)O[C@H]3C[C@H]3O[C@@H](CC[C@@H]1O2)C[C@@H](C)C3=C	0.7 nM	0.46 nM			
						4.78 L/kg	48.5 mL/min/kg	246 min	63 ng·h/mL	5 min	11.3%	C=C1C[C@@H]2CC[C@@]34C[C@H]5O[C@H]6[C@@H](O3)[C@H]3O[C@H](CC[C@@H]3O[C@H]6[C@H]5O4)CC(=O)C[C@@H]3[C@@H](OC)[C@@H](CCNCC(F)F)O[C@H]3C[C@H]3O[C@@H](CC[C@@H]1O2)C[C@@H](C)C3=C	3.16 nM	3.11 nM			
						0.92 L/kg	11.3 mL/min/kg	54 min	1090 ng·h/mL	5 min	14.9%	C=C1C[C@@H]2CC[C@@]34C[C@H]5O[C@H]6[C@@H](O3)[C@H]3O[C@H](CC[C@@H]3O[C@H]6[C@H]5O4)CC(=O)C[C@@H]3[C@@H](OC)[C@@H](C[C@@H](CN4CCOCC4)OC)O[C@H]3C[C@H]3O[C@@H](CC[C@@H]1O2)C[C@@H](C)C3=C	0.23 nM	0.2 nM	Dose-dependent effect	Active	Active
